Like-named read-outs stand apart in the source and are kept apart here.
Columns and labels:
[1] = first value of 'x vs. y', second value is an unnamed comparator arm, cited from earlier work; for OS: overall survival; for PFS: progression-free survival
[2] = tested on: Panc1 Cells; assay: ADC cytotoxicity, MTT cell viability assay; type: cell-based, human
[3] = tested on: MIA PaCa2; assay: ADC cytotoxicity, MTT cell viability assay; type: cell-based, human
Method: (§1) Cell viability was assessed by an MTT assay in Panc1 cells and other cell lines at 72 hours post-treatment with increasing concentrations of the ADC and relevant controls. The assay confluence was 20% at the start and up to 60% confluence.
(§2) Cell viability was assessed by an MTT assay in other pancreatic cancer cell lines.
(§3) Cell viability was assessed by an MTT assay in pancreatic cancer cell lines at 72 hours post-treatment with increasing concentrations of the ADC and relevant controls.

[4] = tested on: Capan-1; assay: ADC cytotoxicity, MTT cell viability assay; type: cell-based, human
Method: as §1, §2, §3

[5] = tested on: BxPC-3; assay: ADC cytotoxicity, MTT cell viability assay; type: cell-based
Method: as §1, §2, §3

[6] = tested on: BJ fibroblasts; assay: ADC cytotoxicity in normal cell lines, MTT assay
Method: (§4) Cell viability was assessed by an MTT assay in KV2 cells and other normal cell lines at 72 hours post-treatment with increasing concentrations of the ADC and relevant controls.
(§5) Cell viability was assessed by an MTT assay in normal cell lines at 72 hours post-treatment with increasing concentrations of the ADC and relevant controls.

[7] = tested on: HUVECs; assay: ADC cytotoxicity in normal cell lines, MTT assay; conditions: read-out: IC50 / cytotoxicity; HUVEC, additional characterization (FIG. 41)
Method: as §4, §5

[8] = tested on: KV2 cells; assay: ADC cytotoxicity in normal cell lines, MTT assay; conditions: read-out: IC50 / cytotoxicity
Method: as §4, §5

[9] = tested on: mIMCD; assay: ADC cytotoxicity in normal cell lines, MTT assay
Method: as §4, §5

[10] = tested on: H6c7; assay: ADC cytotoxicity in normal cell lines, MTT assay; type: cell-based; conditions: H6c7, additional characterization (FIG. 41)
[11] = tested on: MIA PaCa2 Cells; assay: Cell viability in response to increasing doses of mertansine (FIG. 19); type: cell-based, human; conditions: cell viability (FIG. 19)
Method: (§6) Cell viability was measured in response to increasing doses of mertansine in Panc1 and MIA PaCa2 cell lines to determine the IC50 compared to other chemotherapeutic agents (gemcitabine and Nab-paclitaxel) (FIG. 19). Panc1 cells are a human pancreatic cancer cell line isolated from a pancreatic carcinoma of ductal cell origin. MIA PaCa-2 cells are another type of pancreatic cancer cell line that was derived from the carcinoma of a patient.

[12] = tested on: Panc1 Cells; assay: as above; type: cell-based, human; conditions: cell viability (FIG. 19)
Method: as §6

[13] = Circular dichroism (CD): specificity and structural assembly of peptides; type: physicochemical; conditions: circular dichroism (FIG. 2A, FIG. 14A)
From the text: We designed and prepared peptide sequences that form a tetrameric coiled coil,^14,15 but discourage self-interaction (positively charged amino acids in docking, negatively charged in receiving).

[14] = read-out: IC50 / cytotoxicity, MTT (FIG. 32), NS = not significantly different from 100% viability of control
[15] = read-out: IC50 / cytotoxicity, additional characterization (FIG. 41)

In the case of `C#Cc1cccc(Nc2ncnc3cc(OCCOC)c(OCCOC)cc23)c1` [Erlotinib], the OS [1] is listed as 6.2 vs. 5.9 mo and the PFS [1] is listed as 3.8 vs. 3.6 mo.

Compound `Nc1ccn([C@@H]2O[C@H](CO)[C@@H](O)C2(F)F)c(=O)n1` [Gemcitabine] has an IC50 ([2]; Homo sapiens, PANC-1, Panc1, MTT, 72 hours (FIG. 28)) of 700 nM and an IC50 ([3]; Homo sapiens, MIA PaCa-2, MIA PaCa2, MTT (FIG. 29-30)) of 256 nM.

For `COc1cc2cc(c1Cl)N(C)C(=O)C[C@H](OC(=O)[C@H](C)N(C)C(=O)CCS)[C@]1(C)O[C@H]1[C@H](C)[C@@H]1C[C@@](O)(NC(=O)O1)[C@H](OC)/C=C/C=C(\C)C2` [Mertansine, mertansine], the IC50 ([2]; Panc1, MTT, 72 hours (FIG. 28-30)) was 1.98 nM, the IC50 ([2]; Panc1, additional characterization (FIG. 39)) was 1.98 nM and the IC50 ([4]; Capan-1, MTT (FIG. 30)) was 22.1 nM. It also gave an IC50 ([4]; Capan-1, additional characterization (FIG. 39)) of 22.1 nM, an IC50 ([3]; MIA PaCa2, MTT (FIG. 29-30)) of 0.31 nM and an IC50 ([3]; MIA PaCa2, additional characterization (FIG. 39)) of 0.31 nM. The IC50 ([5]; BxPC-3, MTT (FIG. 30)) was 18.8 nM, the IC50 ([5]; BxPC-3, additional characterization (FIG. 39)) was 18.8 nM and the IC50 [6, 14] was 16.8 nM. The IC50 [6, 15] was 16.8 nM, the IC50 [7] was 2.7 nM and the IC50 ([8]; KV2, additional characterization (FIG. 41)) was 289 nM. For the same compound, the IC50 ([8]; KV-2, MTT, 72 hours (FIG. 31-32), NS = not significantly different from 100% viability of control) was 95.5 nM, the IC50 [9, 14] was 3 nM and the IC50 [9, 15] was 3 nM. The IC50 [10] was 2.4 nM, the IC50 [11] was 0.268 nM and the IC50 [12] was 1.19 nM.

For Cixutumumab, the OS [1] is given as 7.0 vs. 6.7 mo and the PFS [1] is given as 3.6 vs 3.6 mo.

In the case of “MK(LEEIVSE)2LEEIVTELEEIVSEVGER (MKLEEIVSELEEIVSELEEIVTELEEIVSEVGER) [Peptide V/E, acidic V/E-type docking peptide]”, the “self-assembly / coiled coil formation” value [13] is reported as “do not self-assemble”.

For MK(LKKIKSV)4VGER [Peptide V/K], the “self-assembly / coiled coil formation” value [13] was “do not self-assemble”.

In the case of Nimotuzumab, the OS [1] is listed as 8.6 vs. 6.0 mo and the PFS [1] is listed as 5.3 vs. 3.6 mo.

From patent US10953107B2, “Polypeptide compositions and methods for site-specific targeting of therapeutic agents” (Trustees of Boston University, priority 2018, dated 2021)
